In patent US11091478B2 (Fochon Pharmaceuticals, Ltd., priority 2017, dated 2021) one finds IC50 data, which are given here for six molecules.

One assay relates to DOHH2 cells. Nature of the assay: Cell proliferation assay (MTS), DOHH2 cells, 120 h. Format: cell-based. As to conditions: Homo sapiens, DOHH-2, 120 h. Summed up: (§1)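 Treatment lasts 72 h for RS4;11 and 120 h for DOHH2 cells seeded at 5000 per well in serum-containing RPMI-1640. A 2 h MTS step, halted with 10% SDS, precedes dual-wavelength absorbance reading and IC50 fitting.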

The next assay has as its system RS4;11 cells. Nature of the assay: Cell proliferation assay (MTS), RS4;11 cells, 72 h. Format: cell-based. As to conditions: Homo sapiens, RS4-11, 72 h. The gist of the method:
as §1

With `COC(=O)NC[C@@H]1COc2cc(S(=O)(=O)NC(=O)c3ccc(N4CCN(CC5=C(c6ccc(Cl)cc6)CC(C)(C)CC5)CC4)cc3Oc3cnc4[nH]ccc4c3)cc([N+](=O)[O-])c2N1` [Example 2-134, methyl (R)-((7-(N-(2-((1H-pyrrolo[2,3-b]pyridin-5-yl)oxy)-4-(4-((4′-chloro-5,5-dimethyl-3,4,5,6-tetrahydro-[1,1′-biphenyl]-2-yl)methyl)piperazin-1-yl)benzoyl)sulfamoyl)-5-nitro-3,4-dihydro-2H-benzo[b][1,4]oxazin-3-yl)methyl)carbamate], the figures for the half-maximal inhibitory concentration (IC50) in the assay on DOHH2 cells and in the assay on RS4;11 cells were 39 nM and 2 nM, respectively.
In the same order, the values of `CC1(C)CCC(CN2CCN(c3ccc(C(=O)NS(=O)(=O)c4cc5c(c([N+](=O)[O-])c4)N[C@H](CNS(=O)(=O)C4CC4)CO5)c(Oc4cnc5[nH]ccc5c4)c3)CC2)=C(c2ccc(Cl)cc2)C1` [Example 2-138, (R)-2-((1H-pyrrolo[2,3-b]pyridin-5-yl)oxy)-4-(4-((4′-chloro-5,5-dimethyl-3,4,5,6-tetra-hydro-[1,1′-biphenyl]-2-yl)methyl)piperazin-1-yl)-N-((3-(cyclopropanesulfonamidometh-yl)-5-nitro-3,4-dihydro-2H-benzo[b][1,4]oxazin-7-yl)sulfonyl)benzamide] are 166 nM and 72 nM.
Consider `CC1(C)CCC(CN2CCN(c3ccc(C(=O)NS(=O)(=O)c4cc5c(c([N+](=O)[O-])c4)N[C@H](CNS(=O)(=O)C4CCOCC4)CO5)c(Oc4cnc5[nH]ccc5c4)c3)CC2)=C(c2ccc(Cl)cc2)C1` [Example 2-139, (R)-2-((1H-pyrolo[2,3-b]pyridin-5-yl)oxy)-4-(4-((4′-chloro-5,5-dimethyl-3,4,5,6-tetra-hydro-[1,1′-biphenyl]-2-yl)methyl)piperazin-1-yl)-N-((5-nitro-3-(((tetrahydro-2H-pyran)-4-sulfonamido)methyl)-3,4-dihdyro-2H-benzo[b][1,4]oxazin-7-yl)sulfonyl)benzamide], for which the results for the IC50 with DOHH2 cells and with RS4;11 cells were 338 nM and 88 nM, respectively.
In the same order, the values of `CC1(C)CCC(CN2CCN(c3ccc(C(=O)NS(=O)(=O)c4cc5c(c([N+](=O)[O-])c4)N[C@@H](CC(=O)N4CCOCC4)CO5)c(Oc4cnc5[nH]ccc5c4)c3)CC2)=C(c2ccc(Cl)cc2)C1` [Example 2-142, (S)-2-((1H-pyrrolo[2,3-b]pyridin-5-yl)oxy)-4-(4-((4′-chloro-5,5-dimethyl-3,4,5,6-tetra-hydro-[1,1′-biphenyl]-2-yl)methyl)piperazin-1-yl)-N-((3-(2-morpholino-2-oxoethyl)-5-nitro-3,4-dihydro-2H-benzo[b][1,4]oxazin-7-yl)sulfonyl)benzamide] are 28 nM and 3 nM.
In the case of `CC1(C)CCC(CN2CCN(c3ccc(C(=O)NS(=O)(=O)c4cc5c(c([N+](=O)[O-])c4)N[C@H](CC(=O)N4CCOCC4)CO5)c(Oc4cnc5[nH]ccc5c4)c3)CC2)=C(c2ccc(Cl)cc2)C1` [Example 2-143, (R)-2-((1H-pyrrolo[2,3-b]pyridin-5-yl)oxy)-4-(4-((4′-chloro-5,5-dimethyl-3,4,5,6-tetra-hydro-[1,1′-biphenyl]-2-yl)methyl)piperazin-1-yl)-N-((3-(2-morpholino-2-oxoethyl)-5-nitro-3,4-dihydro-2H-benzo[b][1,4]oxazin-7-yl)sulfonyl)benzamide], the IC50 in the assay with DOHH2 cells and with RS4;11 cells was 35 nM throughout.
As for `CC1(C)CCC(CN2CCN(c3ccc(C(=O)NS(=O)(=O)c4cc5c(c([N+](=O)[O-])c4)N[C@H](CC#N)CO5)c(Oc4cnc5[nH]ccc5c4)c3)CC2)=C(c2ccc(Cl)cc2)C1` [Example 2-144, (R)-2-((1H-pyrrolo[2,3-b]pyridin-5-yl)oxy)-4-(4-((4′-chloro-5,5-dimethyl-3,4,5,6-tetra-hydro-[1,1′-biphenyl]-2-yl)methyl)piperazin-1-yl)-N-((3-(cyanomethyl)-5-nitro-3,4-di-hydro-2H-benzo[b][1,4]oxazin-7-yl)sulfo-nyl)benzamide], the IC50 (as a rule, the concentration that inhibits the measured activity by half) in the assay on DOHH2 cells was 14 nM; in the assay with RS4;11 cells it was 3 nM.
